Source: patent publication US20170363612A1, “COMPOSITIONS AND METHODS RELATING TO PROLIFERATIVE DISORDERS” (Wayne State University, priority 2014, published 2017)
Values joined by “and” are separate entries in the source; they are usually repeats but may differ in a detail not shown here. Identical values can stand only once. “Also recorded” adds a separate entry of the source. Like-named read-outs stand apart in the source and are kept apart here. Marks after values point to notes of the source that are not given here. Residues, ends and D or L forms follow the SMILES beside them. *: point of attachment. Cbz = O=C(OCc1ccccc1)*

Columns and labels:
SET Ribosome [1] = test system: SET Ribosome
[2] = in vivo, cited from earlier work
[3] = test system: HCT116 hTRdm-fLUC#32 tumors; format: in vivo, nude mice; conditions: cremophorEL 0.5 mg/kg/day Q2Dx5; cyclophosphamide 120 mg/kg/day Q4Dx3; IV
SET Ribosome [4] = format: in vivo, nude mice; conditions: individual animals; for % Induction: post- vs pre-treatment
[5] = test system: HCT116 hTRdm-fLUC#32 tumors; conditions: for Tumor Regression during Treatment, Average / Tumor Regression during Treatment, Mean: oral daily 10 days, Cape 400 mg/kg/day
[6] = test system: HCT116 hTRdm-fLUC#32 tumors; conditions: for Tumor Regression during Treatment, Average / Tumor Regression during Treatment, Mean: oral daily 18 days, Cape 500 mg/kg/day, anisomycin L 0.000027, H 0.000054 mg/kg/day
SET Ribosome [7] = assay: Cobalt chloride Dose-dependent Modifier Assay, HEK293 mTRdm-fLUC#12; format: cell-based, human; conditions: 6 hours
SET Ribosome [8] = assay: TPA Reference Standard Response Modifier Assay with ribosome binding translation inhibitors, HEK293 hTRdm-fLUC#13; format: cell-based, human; conditions: with 100 nM TPA; 6 hours
SET Ribosome [9] = assay: Rapamycin dose response and TPA+Taxol Modifier Assay, MCF7 TR Cell Panel
Method: To tease apart the growth and stress responses, cells were treated with varying doses of rapamycin, incubated at 37° C. for 6 hours, and assayed for fLuc activity.
In other studies, the effects of different rapamycin concentrations were measured in combination with the TPA+Taxol Reference Standard response in the MCF7 derived cell lines that express the fLuc reporter either constitutively (CMV lines) or as a part of the TR Expression Cassette (hTR and mTR lines). […] Cells were treated with 100 nM TPA, 500 nM paclitaxel, and varying concentrations of rapamycin, incubated at 37° C. for 6 hours, and assayed for fLuc activity.
Select members of the MCF7 TR Cell Panel were plated into 96-well microtiter plates and processed as described for a Cell Count Dose-dependent Modifier protocol. Rapamycin concentrations were tested for an ability to alter the Reference Standard responses produced by a 100 nM TPA/500 nM paclitaxel combination. Rapamycin was applied at doses ranging from 1 nM to 1 μM concentrations. All dilutions were prepared in complete growth media. Cells were incubated for 6 hrs, processed, and assayed for luciferase activity as described.

[10] = single listed concentration: dbcAMP 5 mM, TPA 100 nM, Paclitaxel 500 nM, MG132 50 uM, Colchicine 1 uM, MRA 150 nM, Bortezomib 50 nM
[11] = MCF7 TR Class 3/4 lines, 100 nM TPA + 500 nM paclitaxel, 6 hours

Question: Which “SET Response” value (SET Ribosome [1]; [10]) does the source give for `CC(C)C[C@H](NC(=O)[C@H](Cc1ccccc1)NC(=O)c1cnccn1)B(O)O` [Bortezomib (Velcade), [(1R)-3-methyl-1-[[(2S)-1-oxo-3-phenyl-2-[(pyrazinylcarbonyl)amino]propyl]amino]butyl] boronic acid] here?
Answer: Antagonist/; also recorded: Agonist

Question: Which “SET Response” value (SET Ribosome [1]) does the source give for `CNc1ccc2oc(C[C@H]3O[C@@]4(CC[C@H]3C)O[C@H]([C@H](C)C(=O)c3ccc[nH]3)[C@H](C)C[C@H]4C)nc2c1C(=O)O` [Calon, Calcimycin] here?
Answer: Antagonist; also recorded: Agonist

Question: With `COc1cc2c(c(OC)c1OC)-c1ccc(OC)c(=O)cc1[C@@H](NC(C)=O)CC2` [Colchicine, N-[(7S)-1,2,3,10-tetramethoxy-9-oxo-5,6,7,9-tetrahydrobenzo[a]heptalen-7-yl]acetamide] as the compound, how does the “SET Response” value (SET Ribosome [1]) read?
Answer: Agonist

Question: With `O=P1(N(CCCl)CCCl)NCCCO1` (stereo not shown) [Cyclophosphamide, RS-N,N-bis(2-chloroethyl)-1,3,2-oxazaphosphinan-2-amine 2-oxide] as the compound, how does the elimination half-life ([2]; po) read?
Answer: 3 to 12 h

Question: What about the oral bioavailability ([2]; po) of the same compound?
Answer: > 75%

Question: And the “dose excreted in the urine as unchanged drug” value [2]?
Answer: 5-25%

Question: What about the “effect on tumor growth” value [3] of the same compound?
Answer: slowed tumor growth

Question: And the “6 hr Post-treatment Value (bioluminescence signal intensity)” value (SET Ribosome [4]; IV, CremophorEL 0.5 mg/kg, paclitaxel 20 mg/kg, cyclophosphamide 120 mg/kg, average tumor size 125 mg)?
Answer: 38.6 ×10e6 photons and 50.4 ×10e6 photons and 101.0 ×10e6 photons and 39.3 ×10e6 photons and 82.5 ×10e6 photons and 56.8 ×10e6 photons

Question: What about the “6 hr Post-treatment Value (bioluminescence signal intensity)” value (SET Ribosome [4]; average tumor size 500 mg) of the same compound?
Answer: 75.0 ×10e6 photons and 81.5 ×10e6 photons and 48.8 ×10e6 photons

Question: And the “% Induction” value (SET Ribosome [4]; average tumor size 125 mg)?
Answer: 12,866.7% *** and 381.8% and 167.2% and 13,100.0% *** and 373.3% and 18,933.3% ***

Question: And the “% Induction” value (SET Ribosome [4]; average tumor size 500 mg)?
Answer: 204.9% and 368.8% and 109.7%

Question: For `CC(C)C[C@@H](C=O)NC(=O)[C@H](CC(C)C)NC(=O)[C@H](CC(C)C)NC(=O)OCc1ccccc1` [MG132, Z-Leu-Leu-Leu-aldehyde] (Cbz-Leu-Leu-Leu-aldehyde), which “SET Response” value (SET Ribosome [1]) is on record?
Answer: Antagonist/; also recorded: Agonist

Question: For `CC(=O)O[C@H]1C(=O)[C@@]2(C)[C@H]([C@H](OC(=O)c3ccccc3)[C@]3(O)C[C@H](OC(=O)[C@H](O)[C@@H](NC(=O)c4ccccc4)c4ccccc4)C(C)=C1C3(C)C)[C@]1(OC(C)=O)CO[C@@H]1C[C@@H]2O` [Paclitaxel, 5β,20-epoxy-1,2α,4,7β,10β,13α-hexahydroxytax-1-1-en-9-14,10-diacetate 2-benzoate 13-ester with (2R,3S)-N-benzoyl-3-phenylisoserine], which “SET Response” value (SET Ribosome [1]; [10]) is on record?
Answer: Agonist

Question: Which survival mean ([5]; Example 3 text on FIG. 16) does the source give for `CCCCCOC(=O)Nc1nc(=O)n([C@@H]2O[C@H](C)[C@@H](O)[C@H]2O)cc1F` [capecitabine, pentyl [1-(3,4-dihydroxy-5-methyltetrahydrifuran-2-yl)-5-fluoro-2-oxo-1H-pyrimidine-4-yl]carbamate] here?
Answer: 47 days

Question: What about the sacrifice mean ([5]; Kaplan-Meier, FIG. 16 description) of the same compound?
Answer: 47 days

Question: What about the “Tumor Regression during Treatment, Average” value [5] of the same compound?
Answer: 35.2%

Question: What about the “Tumor Regression during Treatment, Mean” value [5] of the same compound?
Answer: 35.2%

Question: And the “Tumor Regression during Treatment, Average” value ([5]; listed as Cape)?
Answer: 29.4%

Question: What about the “Tumor Regression during Treatment, Mean” value ([5]; listed as Cape) of the same compound?
Answer: 35.2%

Question: What about the “time of maximal metabolite concentration in the plasma” value ([2]; iv) of the same compound?
Answer: 2 to 3 h

Question: And the “Animal weight averages, day 7” value ([6]; mouse, in vivo)?
Answer: 20.88 g

Question: And the “Animal weight averages, day 10” value ([6]; mouse, in vivo)?
Answer: 20.88 g

Question: And the “Animal weight averages, day 13” value ([6]; mouse, in vivo)?
Answer: 20.36 g

Question: And the “Animal weight averages, day 15” value ([6]; mouse, in vivo)?
Answer: 19.38 g

Question: And the “Animal weight averages, day 18” value ([6]; mouse, in vivo)?
Answer: 18.50 g

Question: And the “Animal weight averages, day 24” value ([6]; mouse, in vivo)?
Answer: 19.56 g

Question: What about the “Animal weight averages, day 31” value ([6]; mouse, in vivo) of the same compound?
Answer: 21.17 g

Question: What about the “Animal weight averages, day 35” value ([6]; mouse, in vivo) of the same compound?
Answer: 22.32 g

Question: What about the “Animal weight averages, day 38” value ([6]; mouse, in vivo) of the same compound?
Answer: 22.99 g

Question: What about the spontaneous death ([6]; mouse, in vivo) of the same compound?
Answer: one

Question: And the survival mean ([6]; mouse, in vivo)?
Answer: 24 days

Question: And the “Tumor Regression during Treatment, Average” value [6]?
Answer: 53.2%

Question: What about the “Tumor Regression during Treatment, Mean” value [6] of the same compound?
Answer: 56%

Question: What about the “Tumor Regression during Treatment, Average” value ([6]; listed as Cape) of the same compound?
Answer: 53.2%

Question: And the “Tumor Regression during Treatment, Mean” value ([6]; listed as Cape)?
Answer: 56.0%

Question: For `[Cl-].[Cl-].[Co+2]` [cobalt(II) chloride], which “doses repressing background SET Ribosome activity” value (SET Ribosome [7]; cobalt applied alone) is on record?
Answer: > 50 µM

Question: What about the “doses inhibiting TPA SET activation” value (SET Ribosome [7]; with 100 nM TPA) of the same compound?
Answer: > 200 µM

Question: What about the “doses inhibiting TPA SET activation” value (SET Ribosome [7]; with 100 nM TPA, listed as CoCl2) of the same compound?
Answer: ≥ 200 µM

Question: And the IC50 (SET Ribosome [7]; with 100 nM TPA, read-out: IC50, inhibition of SET activity in cells treated with TPA)?
Answer: ~1000 µM

Question: And the “doses inhibiting SET Ribosome activation by paclitaxel (Taxol)” value (SET Ribosome [7]; with paclitaxel Reference Standard)?
Answer: > 50 µM

Question: And the “doses inhibiting SET Ribosome activation by paclitaxel (Taxol)” value (SET Ribosome [7]; with paclitaxel Reference Standard, listed as CoCl2)?
Answer: ≥ 50 µM

Question: And the IC50 (SET Ribosome [7]; with paclitaxel Reference Standard, read-out: IC50, inhibition of SET Ribosome activation by paclitaxel)?
Answer: ~200 µM

Question: Which “IC100 (100% SET Ribosome inhibition)” value (SET Ribosome [8]) does the source give for `C[C@@H]1C[C@@H]([C@H](O)CC2CC(=O)NC(=O)C2)C(=O)[C@@H](C)C1` [cycloheximide] here?
Answer: > 10 µM

Question: Which “IC100 (100% SET Ribosome inhibition)” value (SET Ribosome [8]) does the source give for `COc1ccc(C[C@H](N)C(=O)N[C@H]2[C@@H](O)[C@H](n3cnc4c(N(C)C)ncnc43)O[C@@H]2CO)cc1` [puromycin] here?
Answer: > 25 µM

Question: What does the source list for `CO[C@H]1C[C@@H]2CC[C@@H](C)[C@@](O)(O2)C(=O)C(=O)N2CCCC[C@H]2C(=O)O[C@H]([C@H](C)C[C@@H]2CC[C@@H](O)[C@H](OC)C2)CC(=O)[C@H](C)/C=C(\C)[C@@H](O)[C@@H](OC)C(=O)[C@H](C)C[C@H](C)/C=C/C=C/C=C/1C` [rapamycin]?
Answer: concentrations giving SET decline in TPA+Taxol treated samples (SET Ribosome [9]; [11]): ≥ 100 nM; dose up to which SET of TPA+Taxol treated samples is super-induced (SET Ribosome [9]; [11]): ≤ 50 nM; dose giving a spike in fLuc activity (SET Ribosome [9]; MCF7 TR Class 3/4 lines, rapamycin alone, 6 hours): 50 nM; doses at which the magnitude of SET is reduced but not eliminated (SET Ribosome [9]; MCF7 cells, 6 hrs): > 50 nM

Question: What does the source list for polyoxyl 35 castor oil [cremophorEL]?
Answer: Animal weight averages, day 7 ([6]; mouse, in vivo): 22.25 g; Animal weight averages, day 10 ([6]; mouse, in vivo): 22.39 g; Animal weight averages, day 13 ([6]; mouse, in vivo): 22.23 g; Animal weight averages, day 15 ([6]; mouse, in vivo): 21.60 g; Animal weight averages, day 18 ([6]; mouse, in vivo): 21.93 g; Animal weight averages, day 24 ([6]; mouse, in vivo): 21.59 g; Animal weight averages, day 31 ([6]; mouse, in vivo): 20.22 g
